According to ChEMBL document CHEMBL4507268 (2021):

Assays:
Settings in all cases: Compound concentration 1.0 uM
[1] = target: Calcium/calmodulin-dependent protein kinase kinase 1 (Homo sapiens) (UniProt Q8N5S9)
[2] = target: T1, Activin receptor type-1B (Homo sapiens) (UniProt P36896)
T1 sequence (whole entry): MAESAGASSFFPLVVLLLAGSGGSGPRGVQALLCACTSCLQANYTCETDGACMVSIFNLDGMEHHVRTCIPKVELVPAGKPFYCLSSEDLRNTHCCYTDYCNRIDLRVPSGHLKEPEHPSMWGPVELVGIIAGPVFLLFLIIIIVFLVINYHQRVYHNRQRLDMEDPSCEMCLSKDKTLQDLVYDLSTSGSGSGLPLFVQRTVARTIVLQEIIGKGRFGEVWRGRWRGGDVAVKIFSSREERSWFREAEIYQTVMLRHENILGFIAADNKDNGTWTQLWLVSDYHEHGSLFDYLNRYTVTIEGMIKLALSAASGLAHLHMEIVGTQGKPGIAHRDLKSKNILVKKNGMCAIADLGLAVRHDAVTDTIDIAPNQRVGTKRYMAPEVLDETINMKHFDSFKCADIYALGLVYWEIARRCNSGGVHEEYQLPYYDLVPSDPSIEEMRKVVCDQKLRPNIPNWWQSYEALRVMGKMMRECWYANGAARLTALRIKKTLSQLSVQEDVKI

[3] = target: Cyclin-dependent kinase-like 1 (Homo sapiens) (UniProt Q00532)
Chain of Cyclin-dependent kinase-like 1 (Homo sapiens) (Q00532 whole entry): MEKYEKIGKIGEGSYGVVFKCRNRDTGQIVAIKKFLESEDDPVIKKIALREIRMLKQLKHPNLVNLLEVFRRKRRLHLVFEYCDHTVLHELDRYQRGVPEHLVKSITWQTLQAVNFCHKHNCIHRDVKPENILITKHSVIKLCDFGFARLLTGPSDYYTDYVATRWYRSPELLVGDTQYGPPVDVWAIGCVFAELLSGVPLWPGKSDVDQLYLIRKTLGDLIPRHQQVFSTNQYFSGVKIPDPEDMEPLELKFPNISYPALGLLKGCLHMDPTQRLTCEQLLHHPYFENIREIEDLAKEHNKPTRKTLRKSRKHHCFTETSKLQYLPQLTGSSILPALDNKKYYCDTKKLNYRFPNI

[4] = target: Vascular endothelial growth factor receptor 2 (Homo sapiens) (UniProt P35968)
Chain of Vascular endothelial growth factor receptor 2 (Homo sapiens) (P35968 whole entry): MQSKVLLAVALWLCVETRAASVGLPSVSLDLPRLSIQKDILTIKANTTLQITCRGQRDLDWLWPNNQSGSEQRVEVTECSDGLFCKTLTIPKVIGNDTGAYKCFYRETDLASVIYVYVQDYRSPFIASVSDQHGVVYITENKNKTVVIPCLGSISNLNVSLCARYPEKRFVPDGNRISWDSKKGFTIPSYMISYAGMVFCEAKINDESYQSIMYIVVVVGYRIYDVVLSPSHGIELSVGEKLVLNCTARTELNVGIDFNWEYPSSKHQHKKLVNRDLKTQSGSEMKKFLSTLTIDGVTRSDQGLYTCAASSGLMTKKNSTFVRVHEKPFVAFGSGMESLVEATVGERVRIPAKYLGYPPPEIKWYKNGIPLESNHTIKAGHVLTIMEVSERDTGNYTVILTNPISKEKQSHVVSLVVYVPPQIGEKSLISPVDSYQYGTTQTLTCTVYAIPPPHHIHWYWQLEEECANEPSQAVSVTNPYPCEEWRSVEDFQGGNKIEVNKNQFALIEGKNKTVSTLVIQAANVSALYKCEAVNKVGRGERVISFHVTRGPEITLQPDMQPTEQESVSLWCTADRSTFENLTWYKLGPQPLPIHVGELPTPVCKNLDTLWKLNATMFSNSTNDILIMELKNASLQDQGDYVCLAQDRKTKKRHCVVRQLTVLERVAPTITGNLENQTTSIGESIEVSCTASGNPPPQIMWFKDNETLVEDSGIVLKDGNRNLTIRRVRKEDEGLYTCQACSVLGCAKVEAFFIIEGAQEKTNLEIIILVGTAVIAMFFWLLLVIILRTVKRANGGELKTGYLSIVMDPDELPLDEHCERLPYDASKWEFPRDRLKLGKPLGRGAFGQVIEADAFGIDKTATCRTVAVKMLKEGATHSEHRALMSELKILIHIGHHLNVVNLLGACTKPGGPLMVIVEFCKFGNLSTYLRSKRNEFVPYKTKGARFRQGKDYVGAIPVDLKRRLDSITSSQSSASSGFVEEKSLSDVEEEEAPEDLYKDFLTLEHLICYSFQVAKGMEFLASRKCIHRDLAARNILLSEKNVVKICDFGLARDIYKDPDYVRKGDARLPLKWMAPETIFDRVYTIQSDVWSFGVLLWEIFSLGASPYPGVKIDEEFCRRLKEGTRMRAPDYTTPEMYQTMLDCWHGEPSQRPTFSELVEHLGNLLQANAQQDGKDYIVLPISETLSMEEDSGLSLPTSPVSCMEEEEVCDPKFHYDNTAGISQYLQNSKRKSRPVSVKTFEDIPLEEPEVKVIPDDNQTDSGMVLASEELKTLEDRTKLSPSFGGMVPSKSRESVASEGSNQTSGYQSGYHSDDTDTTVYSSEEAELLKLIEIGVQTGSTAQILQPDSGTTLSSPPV

[5] = target: T2, Dual specificity tyrosine-phosphorylation-regulated kinase 2 (Homo sapiens) (UniProt Q92630)
T2 sequence (whole entry): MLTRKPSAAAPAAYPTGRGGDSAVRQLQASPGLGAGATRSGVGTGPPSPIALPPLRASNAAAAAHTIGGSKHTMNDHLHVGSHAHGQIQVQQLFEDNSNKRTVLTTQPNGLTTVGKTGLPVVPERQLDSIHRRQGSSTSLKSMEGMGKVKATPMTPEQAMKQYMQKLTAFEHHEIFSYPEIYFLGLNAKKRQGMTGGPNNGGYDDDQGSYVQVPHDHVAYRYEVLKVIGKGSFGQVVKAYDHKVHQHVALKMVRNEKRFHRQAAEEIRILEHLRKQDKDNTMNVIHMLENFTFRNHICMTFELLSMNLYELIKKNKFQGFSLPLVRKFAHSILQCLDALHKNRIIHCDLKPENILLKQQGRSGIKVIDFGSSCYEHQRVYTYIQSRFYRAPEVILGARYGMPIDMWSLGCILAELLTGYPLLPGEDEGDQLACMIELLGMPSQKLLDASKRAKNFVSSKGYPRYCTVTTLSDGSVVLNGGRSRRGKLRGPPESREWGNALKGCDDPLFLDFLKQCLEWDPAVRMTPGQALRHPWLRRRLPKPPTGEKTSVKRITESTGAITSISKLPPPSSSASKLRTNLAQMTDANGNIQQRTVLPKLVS

[6] = target: T3, Ephrin type-A receptor 1 (Homo sapiens) (UniProt P21709)
T3 sequence (whole entry): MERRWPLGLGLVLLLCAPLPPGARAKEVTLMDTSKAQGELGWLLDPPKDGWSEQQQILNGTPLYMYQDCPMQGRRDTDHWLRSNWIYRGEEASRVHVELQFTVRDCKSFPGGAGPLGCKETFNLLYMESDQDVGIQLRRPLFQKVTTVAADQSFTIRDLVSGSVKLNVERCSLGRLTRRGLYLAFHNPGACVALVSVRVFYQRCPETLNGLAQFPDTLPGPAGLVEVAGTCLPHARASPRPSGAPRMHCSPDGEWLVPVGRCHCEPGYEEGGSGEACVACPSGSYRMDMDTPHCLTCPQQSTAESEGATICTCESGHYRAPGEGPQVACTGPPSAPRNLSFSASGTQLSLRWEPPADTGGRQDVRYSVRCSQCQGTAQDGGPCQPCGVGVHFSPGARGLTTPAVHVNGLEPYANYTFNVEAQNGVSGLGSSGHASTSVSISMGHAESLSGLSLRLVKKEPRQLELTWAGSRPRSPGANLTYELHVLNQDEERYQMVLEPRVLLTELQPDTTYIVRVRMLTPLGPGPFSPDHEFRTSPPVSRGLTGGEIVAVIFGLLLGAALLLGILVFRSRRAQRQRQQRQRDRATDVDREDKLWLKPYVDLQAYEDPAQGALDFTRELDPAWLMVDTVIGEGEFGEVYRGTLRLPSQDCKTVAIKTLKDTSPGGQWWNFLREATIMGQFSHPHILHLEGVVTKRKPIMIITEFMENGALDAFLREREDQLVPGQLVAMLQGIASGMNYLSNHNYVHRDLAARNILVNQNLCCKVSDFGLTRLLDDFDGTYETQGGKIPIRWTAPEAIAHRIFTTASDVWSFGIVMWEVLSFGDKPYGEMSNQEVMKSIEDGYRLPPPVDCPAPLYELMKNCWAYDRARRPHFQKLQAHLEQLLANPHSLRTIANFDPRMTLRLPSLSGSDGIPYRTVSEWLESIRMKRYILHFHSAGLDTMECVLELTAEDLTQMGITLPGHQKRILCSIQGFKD

[7] = target: Tyrosine-protein kinase Srms (Homo sapiens) (UniProt Q9H3Y6)
Chain of Tyrosine-protein kinase Srms (Homo sapiens) (Q9H3Y6 whole entry): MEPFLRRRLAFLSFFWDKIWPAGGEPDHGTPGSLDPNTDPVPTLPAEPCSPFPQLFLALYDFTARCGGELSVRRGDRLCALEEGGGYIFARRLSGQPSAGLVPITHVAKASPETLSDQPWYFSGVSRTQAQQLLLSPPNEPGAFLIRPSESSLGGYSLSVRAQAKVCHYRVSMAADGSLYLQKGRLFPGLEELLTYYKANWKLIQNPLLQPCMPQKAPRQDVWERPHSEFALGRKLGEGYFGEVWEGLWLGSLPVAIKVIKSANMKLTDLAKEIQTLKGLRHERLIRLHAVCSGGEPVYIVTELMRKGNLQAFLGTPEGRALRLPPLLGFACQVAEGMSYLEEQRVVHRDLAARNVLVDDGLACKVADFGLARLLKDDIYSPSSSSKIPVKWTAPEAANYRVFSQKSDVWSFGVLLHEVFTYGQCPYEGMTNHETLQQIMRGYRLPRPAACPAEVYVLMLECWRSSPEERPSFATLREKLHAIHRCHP

[8] = target: T4, Serine/threonine-protein kinase Nek3 (Homo sapiens) (UniProt P51956)
T4 sequence (whole entry): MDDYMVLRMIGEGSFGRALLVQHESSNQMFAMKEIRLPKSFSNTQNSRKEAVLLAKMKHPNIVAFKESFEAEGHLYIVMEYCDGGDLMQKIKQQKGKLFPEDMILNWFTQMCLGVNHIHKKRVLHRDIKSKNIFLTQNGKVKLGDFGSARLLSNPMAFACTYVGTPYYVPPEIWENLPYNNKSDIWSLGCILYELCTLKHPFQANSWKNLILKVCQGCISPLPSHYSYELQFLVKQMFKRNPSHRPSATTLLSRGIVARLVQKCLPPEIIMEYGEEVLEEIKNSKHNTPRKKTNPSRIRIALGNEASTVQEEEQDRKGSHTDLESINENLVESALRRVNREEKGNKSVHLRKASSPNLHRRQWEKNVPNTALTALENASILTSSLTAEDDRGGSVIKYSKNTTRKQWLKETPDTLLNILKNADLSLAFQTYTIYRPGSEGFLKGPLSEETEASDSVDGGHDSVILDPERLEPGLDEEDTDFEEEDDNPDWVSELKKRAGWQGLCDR

Measured: % residual kinase activity

Chain of Calcium/calmodulin-dependent protein kinase kinase 1 (Homo sapiens) (Q8N5S9 whole entry, looked up): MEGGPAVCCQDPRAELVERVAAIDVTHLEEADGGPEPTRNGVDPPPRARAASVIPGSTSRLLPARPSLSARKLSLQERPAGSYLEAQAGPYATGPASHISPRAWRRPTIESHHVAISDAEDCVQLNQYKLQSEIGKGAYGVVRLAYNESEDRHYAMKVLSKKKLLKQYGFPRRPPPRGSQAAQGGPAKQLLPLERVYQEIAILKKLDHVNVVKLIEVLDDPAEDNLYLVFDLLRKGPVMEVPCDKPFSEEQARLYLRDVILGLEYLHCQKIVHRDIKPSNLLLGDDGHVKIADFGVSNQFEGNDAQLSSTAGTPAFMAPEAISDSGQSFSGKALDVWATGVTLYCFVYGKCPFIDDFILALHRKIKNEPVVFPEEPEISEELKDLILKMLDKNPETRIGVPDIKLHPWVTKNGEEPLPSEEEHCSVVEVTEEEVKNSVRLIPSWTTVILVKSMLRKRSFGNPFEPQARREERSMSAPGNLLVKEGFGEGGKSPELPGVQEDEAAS

CN1CCN(c2cnc3c(C4CCN(C(=O)c5ccc(OC(F)(F)F)cc5N)CC4)ncnc3c2)CC1 [BAY-885]
inactive: [1] 102% | [2] 98% | [3] 115% | [4] 100% | [5] 105% | [6] 106% | [7] 81% | [8] 111%
